The values that follow come from patent publication US8580231B2, “Compositions and methods comprising magnetic resonance contrast agents” (Northwestern University, priority 2008, dated 2013).

Entries after “also recorded” stand apart in the source; their conditions may differ. Marks after values point to notes of the source that are not given here.

The conditions of series [1]: taken from Caravan et al.; cited from earlier work.
The nature of series [2]: Biodistribution study (Gd(III) in organs by ICP-MS). It is filed as in vivo, mouse. As to conditions: mice, organs harvested 30 minute to 24 hour.
The test system of series [3] is PR(+) T47D and PR(−) MDA-MB-231 xenografted tumors. As to conditions: previously reported (ref. 19); cited from earlier work.
Series [4] addresses T1, progesterone receptor A ligand binding domain (amino acids 675-933) fused to GST (PR-LBD-GST) (Homo sapiens, UniProt P06401).
T1 construct: purchased Invitrogen
T1 sequence (P06401 675-933): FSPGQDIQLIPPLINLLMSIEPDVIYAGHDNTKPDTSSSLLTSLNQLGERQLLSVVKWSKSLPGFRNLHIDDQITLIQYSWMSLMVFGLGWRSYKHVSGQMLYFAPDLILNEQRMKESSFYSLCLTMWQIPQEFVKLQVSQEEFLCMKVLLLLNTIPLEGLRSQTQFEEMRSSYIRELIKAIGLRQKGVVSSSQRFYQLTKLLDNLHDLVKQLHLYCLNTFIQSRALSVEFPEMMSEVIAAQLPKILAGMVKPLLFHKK
The series can be described thus: Receptor binding to nPR (fluorescence polarization, Example 17).

Series [5] relates to PR(+) (T47D) human breast cancer cells. The series can be described thus: Cellular uptake studies (Example 17), PR(+) cells. Type of series: cell-based. As to conditions: 0.125 mM for 1, 4, 10, 24 h or 0.25-2 mM for 4 h. The procedure:
Contrast agents were dissolved in the appropriate medium (containing stripped FBS) for each cell line (T47D and MDA-MB-231) at concentrations of 2, 1, 0.5, 0.25, and 0.125 mM of contrast agent. For concentration-dependent cellular uptake, cells were incubated with 2, 1, 0.5, and 0.25 mM of each contrast agent for 4 h. For the time dependent cellular uptake, cells were incubated with 0.125 mM contrast agent for 1, 4, 10, and 24 h. After incubation, the media was removed, and the cells were rinsed twice with PBS and trypsinized. An aliquot was used for cell counting and the remaining portion was analyzed for Gd(III) content by ICP-MS. Each condition was done in triplicate.
To determine the cell permeability of the compounds, PR(+) (T47D) and PR(−) (MDA-MB-231) human breast cancer cells were incubated with 1a, 2a, 3a, and 4a. Time- and concentration-dependent experiments were performed to identify the optimal dose and incubation times of the agents (FIG. 16).

The subject of series [6] is PR(+) T47D and PR(−) MDA-MB-231 xenografted tumors. The series can be described thus: In vivo MR imaging of xenografted nude mice (contrast-to-noise ratio). The arrangement: species or system mouse. As to conditions: for change in tumor CNR over preinjection levels: 2 and 6 h postinjection; for change in tumor CNR over preinjection levels / CNR of PR(+) tumor compared to PR(−) tumor: intraperitoneal; for CNR of PR(+) tumor compared to PR(−) tumor: 0.15 mmGd/kg in DMSO. The procedure: Female Balb/C athymic nude mice were acquired from Harlan (Indianapolis, Ind.) and housed under pathogen free conditions. All animal studies were conducted at Northwestern University in accordance with the National Institutes of Health Guide for the Care and Use of Laboratory Animals and established institutional animal use and care protocols. Due to low circulating estradiol levels in nude mice, a 17β-estradiol pellet (Innovative Research of America, Sarasota, FA, 70-day release, 0.72 mg/pellet) was implanted subcutaneously in the nape of the neck to ensure growth of estrogen-dependent T47D cells. Two to seven days later, T47D and MDA-MB-231 ((1−2)×10^6) cells were suspended in Matrigel (1:1 volume) and injected subcutaneously into the rear flank (T47D cells on the right side and MDA-MB-231 cells on the left). Mice were monitored for tumor growth every two to three days after injection of cells. Mice were imaged two to three weeks after xenografting when tumors were palpable with a minimum weight of 20 mg (determined after tumor removal postimaging).
Xenografted nude mice were injected intraperitoneally (n=1 per compound) with each agent (0.15 mmGd/kg) dissolved in 50 μL, DMSO. During imaging, mice were maintained under anesthesia (1-3% isoflurane) but were allowed to wake up and recover between imaging time points. Tubing containing heated water was positioned under the mouse to keep a constant body temperature. All MR imaging was performed on a 89 mm bore size PharmaScan 7.05 T MR imager fitted with shielded gradient coils (Bruker BioSpin, Billerica, Mass., USA) using a RF RES 300 1H 089/038 quadrature transmit receive volume coil (Bruker BioSpin, Billerica, Mass., USA). […] Images were analyzed using ImageJ. Contrast-to-noise ratio (CNR) was calculated using the equation CNR=(SITissue−SImuscle)/σnoise where SITumor is the signal intensity in the tumor, SIMuscle is the signal intensity in the muscle, and σnoise is the standard deviation of the noise. CNRs were averaged over two to three axial slices in which the tumors were clearly demarcated.
To determine whether the water-soluble progesterone-conjugated agents would increase the contrast-to-noise ratio (CNR) of PR(+) tumors relative to PR(−) tumors in vivo, athymic nude mice with PR(+) and PR(−) xenografted tumors were injected intraperitoneally with 1a, 2a, or 3a dissolved in DMSO and imaged at 2 and 6 h postinjection. Intraperitoneal injection was chosen over subcutaneous injection because it yielded more consistent results in previous studies, and the parent compound, ProGlo, has been more extensively studied for its biodistribution after intraperitoneal injection. (19) In addition, while these agents are water-soluble, they were dissolved in DMSO to compare back to previous in vivo imaging with the insoluble ProGlo and the control agent 4a.(19)

Series [7] deals with PR / pPRE-luciferase in T47D cells. The series can be described thus: Luciferase assay for nPR activation. Type of series: cell-based, human. As to conditions: 24 h. As to the method:
T47D cells were grown in phenol-free medium, and cells were trypsinized and plated in 24-well plate (50 000 cells/well). Incubation of cells with the pPRE-luciferase plasmid (100 ng/well, construct provided by Dr. Ken Korach, NIEHS, NIH), RSV-β-galactosidase (100 ng/well, provided by Dr. William T. Beck, University of Illinois at Chicago), and Lipofectamine 2000 (1 μL per well, Invitrogen, Carlsbad, Calif.) in Opti-MEM was performed overnight at 37° C. inside a humidified incubator. The cells were treated with 1a, 2a, 3a, and 4a for an additional 24 h.
To measure luciferase production, cells were lysed in 100 μL GME buffer (25 mM glycylglycine at pH 7.8, 15 mM MgSO4, 4 mM EGTA, 1 mM dithiothreitol, and 1% Triton X-100) and lysates were added to assay buffer (GME buffer, 16.5 mM KPO4, 2.2 mM ATP, and 1.1 mM dithiothreitol). Luciferase substrate was injected followed by a 30 s read by a FLUOstar OPTIMA (BMG Lab Tech, Offenburg, Germany). LacZ activity (50 μL lysate) was measured from cleavage of ONPG. The sample results were normalized to β-galactosidase to account for transfection efficiency by dividing the sum of the luciferase activity by the sum of the β-galactosidase activity. Fold change was calculated by taking the luciferase value, dividing by the β-galactosidase activity, and then dividing by the solvent control, which was set equal to one. […]

Take `CC(O)CN1CCN(CC(=O)[O-])CCN(CC(=O)[O-])CCN(CC(=O)[O-])CC1.[Gd+3]` (centres unmarked) [Prohance]: the Relaxivity in series [1] is recorded as 3.7* mM^−1s^−1.

Consider `CCCCCCN1CCN(CC(=O)[O-])CCN(CC(=O)[O-])CCN(CC(=O)[O-])CC1.[Gd+3]` [hexyl-DO3A-Gd(III)], for which the “tissue distribution of Gd(III) (percentage per gram of tissue)” value in series [2] was “mainly end up in the liver and kidney”.

On to DO3A-Gd(III), for which, in series [2], the “tissue distribution of Gd(III) (percentage per gram of tissue)” value was “mainly end up in the liver and kidney”. Also, the “tumor CNR after injection” value in series [3] is “only minimal increases in CNR over time”.

Consider “{2,2′,2″-(10-(2-(((1-(5-(2-(10,13-Dimethyl-3-oxo-2,3,6,7,8,9,10,11,12,13,14,15,16,17-tetradecahydro-1H-cyclopenta[a]phenanthren-17-yl)-2-oxoethoxy)pentyl)-1H-1,2,3-triazol-4-yl)methyl)amino)-2-oxoethyl)-1,4,7,10-tetraazacyclododecane-1,4,7-triyl)triacetate}gadolinium [Compound 1a]”, for which the “RBA, fold less than that of progesterone” value in series [4] is recorded as “about 100 fold”. In addition, the “cellular Gd(III) uptake” value in series [5] is “increased slightly after 1 h and then stabilized”. Also, in series [6], the “change in tumor CNR over preinjection levels” value was “several-fold increase in CNR; also recorded: increased CNR by 2 h, but CNR had decreased by 6 h”. In addition, the “CNR of PR(+) tumor compared to PR(−) tumor” value in series [6] (2 h postinjection) and in series [6] (6 h postinjection) was “significantly higher CNR” each time. Moreover, the “fold change in CNR in the PR(+) tumors, percent higher than with ProGlo” value in series [6] (2 h time point, compared to preinjection CNR) is reported as 16%.

As to “{2,2′,2″-((10-((1-(5-(2-(10,13-Dimethyl-3-oxo-2,3,6,7,8,9,10,11,12,13,14,15,16,17-tetradecahydro-1H-cyclopenta[a]phenanthren-17-yl)-2-oxoethoxy)pentyl)-1H-1,2,3-triazol-4-yl)methyl)-1,4,7,10-tetraazacyclododecane-1,4,7-triyl)triacetate}gadolinium [Compound 2a]”, the “cellular Gd(III) uptake” value in series [5] is reported as “time-dependent accumulation”. For the same compound, in series [7], the “PRE-mediated transcription (luciferase activity)” value is “lowest efficacy”. The “change in tumor CNR over preinjection levels” value in series [6] is “slow increase in CNR over time”. Also, the “CNR of PR(+) tumor compared to PR(−) tumor” value in series [6] (6 h postinjection) was “significantly higher CNR”.
